Laboratory results taken from PubChem BioAssay AID179 (DTP/NCI, 2004).
The source made the active and inactive calls.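 The calls were made as follows: active = compounds giving half or more protection of infected cells from virus-caused growth loss, again on retest; inactive = the rest.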 Where a SMILES comes first, the peptide text is derived from it. Bridges are numbered along the chain shown (N, C = ends). [ ]: non-standard residue; d: D form. Orn = NCCC[CH](N)C(=O)O

Test system: CEM cells HIV-1 protection, formazan growth assay
Assay: NCI AIDS Antiviral Assay
Conditions: for IC50: measured here: growth of uninfected CEM cells
In short: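 Soluble formazan readout of cell growth; CEM cells ± HIV-1; 5 drug concs. ≥50% protection → retest; ≥50% again = moderately active; reproducible 100% = confirmed active.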

| SMILES | EC50 [µM] | IC50 [µM] | outcome |
| --- | --- | --- | --- |
| CCN1CC2(COC)C(O)CC(OC)C34C5CC6(O)C(O)C5C(O)(C(O)C6OC)C(C(OC)C23)C14 (stereo not given) | > 200 | > 200 | – |
| CC(=O)c1ccc(NC(=O)/C(=N\NC(N)=O)C(C#N)CC(C)(C)C=O)cc1 (stereo not given) | > 490 | > 490 | – |
| CC(=O)c1ccc(NC(=O)C(=O)C(C(=O)/C=C/c2ccccc2)C2OC(=O)c3ccccc32)cc1 (stereo not given) | > 282 | 148 | – |
| C[C@]12CCC(=O)C(OC(=O)c3ccc([N+](=O)[O-])cc3)=C1CCC2=O | – | – | inactive |
| C1CCCN(N2CCOCC2)CC1 | > 200 | > 200 | – |
| CCN(CC)CCCNc1nnc2c(=O)n(C)c(=O)n(C)c2n1 | > 200 | > 200 | – |
| COC1(C)CNCC(C)(C)NC(=O)C(C)(OC)CNCC(C)(C)NC1=O (stereo not given) | > 81.3 | > 81.3 | – |
| CN=C(N)N=Nc1c(O)[nH]c2ccccc12 | > 200 | > 200 | – |
| N#CCCC1(CCC#N)S(=O)(=O)OCCOS1(=O)=O | > 200 | 44.7 | – |
| Cc1ccc(C2(O)c3ccccc3N=NN2C)cc1 (stereo not given) | > 269 | 105 | – |
| CCN(CC)CCOC(=O)c1cc2cc([N+](=O)[O-])ccc2oc1=O | > 214 | > 214 | – |
| CC(C)(C)[Si](C)(C)OCC1OC(n2cc(I)c(=O)[nH]c2=O)C(O[Si](C)(C)C(C)(C)C)C1O[Si](C)(C)C(C)(C)C (stereo not given) | > 200 | 17.4 | – |
| COc1cc2c(c(O)c1C)C(=O)CC(c1ccccc1)O2 (stereo not given) | > 35.5 | > 35.5 | – |
| Cc1nc2c(nc1C)C(=O)C(N(C)C)=CC2=O | – | – | inactive |
| C=C1C(=O)OCC2C(C(=O)O)=CC3C(C)C(C)=CC123 (stereo not given) | > 692 | 11.2 | – |
| NC(=O)C1CC(=O)NCCCC(NC(=O)C(N)Cc2ccc(O)cc2)C(=O)NC(Cc2ccccc2)C(=O)N1 (stereo not given) (H-Y[Orn]FD-NH2; lactam 2-4; configuration not given here) | > 100 | > 100 | – |
| Cn1c(=O)sc2cc(C(=S)N3CCC(Cc4ccccc4)CC3)ccc21 | > 200 | 36.3 | – |
| C[N+]1(C)CC2C3C=CC(C3)C2C1 (stereo not given) | > 309 | > 309 | – |
| O=C1c2ccccc2C(=O)C1C(c1ccc([N+](=O)[O-])cc1)C1C(=O)c2ccccc2C1=O | > 4.47 | > 4.47 | – |
| COC(=O)C12CCC(=O)N1CC(=O)c1c2[nH]c2ccccc12 (stereo not given) | – | – | inactive |
| Nc1ncnc2c1ccn2C/C=C\CO | > 200 | > 200 | – |
| Cc1ccc2nc(NC(=O)C(=O)C(C(=O)c3ccc4ccccc4c3)C3OC(=O)c4ccccc43)sc2c1 (stereo not given) | > 50.1 | 25.7 | – |

| SMILES | EC50 [µM] | IC50 [µM] | outcome |
| --- | --- | --- | --- |
| O=C(/C=C/c1ccccc1)CCc1c(O)c2ccccc2oc1=O | > 112 | 97.7 | – |
| CC(=O)[C@@H]1[C@@H](OC(=O)CCC(C)COC2OC(CO)C(O)C(O)C2O)C[C@H]2[C@@H]3CC=C4C[C@@H](OC5OC(CO)C(OC6OC(C)C(O)C(O)C6O)C(O)C5OC5OC(C)C(O)C(O)C5O)CC[C@]4(C)[C@H]3CC[C@]12C (stereo not given in full) | > 200 | > 200 | – |
| CC(O)(CCCCCl)c1nc2ccccc2s1 (stereo not given) | > 200 | 60.3 | – |
| Nc1nc(=S)c2[nH]cnc2[nH]1 | > 60.3 | 0.955 | – |
| CSc1ncc2c(C#N)c3[nH]c4ccccc4n3c(=O)c2n1 | > 200 | 6.46 | – |
| S=c1cn[nH]c2c(Br)cccc12 | > 89.1 | 67.6 | – |
| COc1ccc(C2C(N)=NCC2c2ccccn2)cc1 (stereo not given) | – | – | inactive |
| C[C@@H]1C[C@@H]2OC(=O)[C@]3(C)[C@H]2[C@@H](OC3(C)O)[C@]2(C)C(=O)C=C[C@@H]12 (stereo not given in full) | > 316 | 5.75 | – |
| CC1=N/C(=C\c2cccc(F)c2)C(=O)O1 | > 126 | > 126 | – |
| COCC12CCC(OC)C34C5CC6(O)C(OC)CC(OC(C)=O)(C5C6OC(=O)c5ccccc5)C(C(OC)C13)C4N(C)C2 (stereo not given) | – | – | inactive |
| CC1(CC(=O)OC(C#C[Si](C)(C)C)Cc2ccccc2)OCCO1 (stereo not given) | > 200 | 102 | – |
| CCN(CC)CCNc1ccc(CO)c2oc3cc(Cl)ccc3c(=O)c12 | > 25.1 | 4.57 | – |
| CC1(C(=O)O)CCCC2(C)C3=CC(=O)CCC3=CCC12 (stereo not given) | > 200 | 186 | – |
| CCSC1=N/C(=C\c2ccccc2O)C(Nc2ccc(C)cc2)=N1 | > 100 | > 100 | – |
| CCOC(=O)c1ccc(N=C2Sc3nc4ccccc4n3C2=Nc2ccc(C(=O)OCC)cc2)cc1 | > 50.1 | > 50.1 | – |
| C/C(=N\NC(=S)N1CCN(c2ccccn2)CC1)c1cccc2cccnc12 | > 45.7 | 0.0417 | – |
| COC(=O)C(CC12CC3CC(CC(C3)C1)C2)NC(=O)C(N)CC(=O)O (stereo not given) | > 200 | > 200 | – |
| CCCC(OCC)(OCC)OCC | > 1320 | > 1320 | – |
| CSc1c(C#N)c(S)n(-c2ccc(Cl)cc2)c(=O)c1C#N | > 200 | 52.5 | – |
| CC1(C)CC(=O)C2=C(C1)NC(SSC1=C(C#N)C(c3ccccc3)C3=C(CC(C)(C)CC3=O)N1)=C(C#N)C2c1ccccc1 (stereo not given) | > 112 | 15.5 | – |
| CC(CCC(=O)O)[C@H]1CCC2[C@H]3C(CC[C@@]21C)[C@@]1(C)CCC(O)C[C@H]1C[C@@H]3O (stereo not given in full) | > 200 | > 100 | – |
| N#Cc1sc2c(c1OC(=O)c1ccc(C(F)(F)F)cc1)c(=O)n(-c1ccccc1)c(=S)n2-c1ccccc1 | > 200 | 2.24 | – |

| SMILES | EC50 [µM] | IC50 [µM] | outcome |
| --- | --- | --- | --- |
| Cc1c2n(c(=O)[nH]c1=O)C1OC(CO)C(N=[N+]=[N-])C1O2 (stereo not given) | > 200 | > 200 | – |
| CCOC/N=C(/N)NC#N | > 631 | > 631 | – |
| COC1(C2c3ccccc3CCN2C(=O)OC(C)(C)C)C(=O)C(c2ccccc2)=C1N(C)C (stereo not given) | > 200 | 36.3 | – |
| N=c1c2c(ncn1N)CCN(Cc1ccccc1)C2 | > 200 | 30.9 | – |
| CC[N+]1(C)CSC(=S)N(C)C1 (stereo not given) | > 200 | 75.9 | – |
| Cc1cccc(NC(=O)C(=O)C(C2OC(=O)c3ccccc32)[N+](=O)[O-])c1C (stereo not given) | – | – | inactive |
| O=C(NCP(=O)(c1ccccc1)c1ccccc1)OCc1ccccc1 | > 200 | > 200 | – |
| CSC(=O)/C=C1\SS/C(=C\C(=O)SC)S1 | > 200 | 3.09 | – |
| Cn1cc2c(c1-c1ccccc1)[n+](=O)c1ccccc1n2[O-] | 5.13 | 32.4 | – |
| CCc1nc(N)nc(N)c1-c1ccc(Cl)c(N=NN(C)C)c1 | > 1 | 0.589 | – |
| CCN(CC)C1C2=C(CCCC2)OS(=O)(=O)C1c1ccccc1 (stereo not given) | > 40.7 | > 40.7 | – |
| C=C(C)[C@@H](C(=O)OC)N1C(=O)c2ccccc2C1=O | > 200 | > 200 | – |
| CC1(C)OC[C@@H](C[C@H](O)COCc2ccccc2)O1 | > 200 | > 200 | – |
| Cc1nc(C(N)=S)sc1C(=O)CC(=O)C(=O)Nc1nc2ccccc2[nH]1 | > 93.3 | > 93.3 | – |
| O=C1CS(=O)c2ccccc2N1 (stereo not given) | > 372 | > 372 | – |
| CN1c2ccccc2N=Cc2c1oc1ccc3ccccc3c1c2=O | 46.8 | 50.1 | – |
| CC(C)(CN1CCCCC1)C(=O)CC(SCCN)c1ccc(Cl)cc1 (stereo not given) | > 234 | 12.6 | – |
| CC(C)=CCNc1ncnc2c1ncn2C1OC(CO)C(O)C1O (stereo not given) | > 200 | 15.5 | – |
| Cc1cc(-c2ccccc2)nc(Nc2nc3ccccc3o2)n1 | > 61.7 | > 61.7 | – |
| COc1ccccc1NCc1nnc(CCCCCCCCc2nnc(CNc3ccccc3OC)o2)o1 | > 200 | > 200 | – |
| Cc1cc(N(CCC#N)CCC#N)ccc1/C(N=Nc1ccc(Cl)cc1)=N\NC(=O)c1ccccc1 | > 200 | 21.4 | – |
| O=c1nc(Nc2cccc(Cl)c2)oc2cc(Cl)oc(=O)c12 | > 79.4 | 11.5 | – |

| SMILES | EC50 [µM] | IC50 [µM] | outcome |
| --- | --- | --- | --- |
| O=c1[nH]ncc2c1ncn2C1CCC(CO)O1 (stereo not given) | 195 | > 200 | – |
| O=C(N/N=C/c1c(-c2ccccc2)no[n+]1[O-])N1CCOCC1 | > 100 | > 100 | – |
| Oc1ccc2c(c1)OCC1(O)Cc3cc(O)c(O)cc3C21 (stereo not given) | – | – | inactive |
| CCCCC/C=C/C/C=C/CCCCCCCC(=O)OCC(COC1OC(CS(=O)(=O)O)C(O)C(O)C1O)OC(=O)CCCCCCC/C=C/C/C=C/CCCCC (stereo not given) | > 27.5 | > 27.5 | – |
| C#CCOCC12C=CC(O1)C1COC(=O)C12 (stereo not given) | > 200 | > 200 | – |
| Nc1ccc(/C=C\c2ccc(N)cc2S(=O)(=O)O)c(S(=O)(=O)O)c1 | > 200 | > 200 | – |
| COc1ccc2c(c1)c(C(=O)O)cc(=O)n2C | > 200 | > 200 | – |
| OC(CNc1ccccn1)c1ccccc1 (stereo not given) | > 200 | > 200 | – |
| COc1ccc(Br)c(C=Nc2cccc3cc(OC)c(OC)cc23)c1 | – | – | inactive |
| CCOC(=O)C(=Cc1cccc(C#N)c1)C(=O)OCC | > 132 | 8.51 | – |
| CCCCOCn1c(=O)[nH]c(=O)c2cc(Br)ccc21 | > 200 | 93.3 | – |
| CSC1=C(C(=O)N(COCC[Si](C)(C)C)c2ccccc2Br)CCC(C(C)(C)C)C1 (stereo not given) | > 200 | 17.8 | – |
| CC1=C2c3c(C)ccc4ccc(C)c(c34)C2(O)C(C)C1=O (stereo not given) | > 200 | > 200 | – |
| CCCC(C(=O)OCC)N1C(=O)c2ccccc2S1(=O)=O (stereo not given) | > 200 | 148 | – |
| O=C1CSC(c2c[nH]c3ccccc23)N1c1ccccc1[N+](=O)[O-] (stereo not given) | > 389 | > 389 | – |
| CCOCc1cc(=O)c2c(O)cc3c(c2o1)CCC(C)(C)O3 | – | – | inactive |
| N#C/C(=C/c1ccco1)C(=O)c1ccccc1 | > 162 | > 162 | – |
| Cc1c2c(C(N)=O)nccc2c(C)c2c1c1ccccc1n2Cc1ccccc1 | – | – | inactive |
| Nc1ncc(Sc2ccccc2C(=O)O)s1 | > 200 | > 200 | – |
| COC(=O)/C1=C/C2CC(/C=C(/c3ccccc3)C(=O)O1)C2 | – | – | inactive |
| COc1cc(C(=O)C/C(CCC(=O)Nc2ccccc2[N+](=O)[O-])=N\NC(N)=O)ccc1O | > 562 | 525 | – |
| CC1N=C(c2ccccc2)c2cc(Cl)ccc2NC1=O (stereo not given) | > 18.2 | > 18.2 | – |
